Results from patent US6114390A, “Amino acid derivatives, pharmaceutical compositions containing these compounds and processes for preparing them” (Karl Thomae GmbH, priority 1997, dated 2000).
Structures can show the parent of a compound that is named as a salt.

How the values were obtained:
[1] = molecular target: T1, human Y1 -receptor (Homo sapiens, UniProt P25929); assay: Receptor binding to SK-N-MC cells ([125I]-Bolton-Hunter-NPY displacement); settings: Table 1
T1 construct: endoge- nously expressing Y1 and Y2 receptors; endogenous in cells; host or cells: SK-N-MC (neuroblastoma) cells
T1 sequence (P25929 1-384): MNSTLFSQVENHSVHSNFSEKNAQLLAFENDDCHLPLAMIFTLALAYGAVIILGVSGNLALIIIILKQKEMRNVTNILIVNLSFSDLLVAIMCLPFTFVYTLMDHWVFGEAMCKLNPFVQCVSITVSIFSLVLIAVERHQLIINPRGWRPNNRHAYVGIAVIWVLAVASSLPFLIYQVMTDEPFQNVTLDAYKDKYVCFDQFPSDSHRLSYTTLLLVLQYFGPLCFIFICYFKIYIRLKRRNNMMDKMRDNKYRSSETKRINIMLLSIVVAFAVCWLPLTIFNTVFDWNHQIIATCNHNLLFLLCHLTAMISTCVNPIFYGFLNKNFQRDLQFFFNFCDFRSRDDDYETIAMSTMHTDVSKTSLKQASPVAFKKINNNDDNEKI
Method: Incubation is ended by centrifuging (10 minutes at 3000×gand […].). After washing once with PBS, the radioactivity of the pellet is measured in a gamma counter. […] The proportion of non-specific binding is defined as that radioactivity which is bound in the presence of 1 μM NPY. The IC50 values of the unlabelled test substances are determined graphically.

[2] = tested on: NPY; assay: In vivo NPY-antagonism, NPY-induced blood pressure effects in pithed rats; settings: Rattus norvegicus, iv, 1 min, NPY 10 μg/kg i.v., diastolic blood pressure, read-out: pIC50 (in vivo NPY-antagonism) (converted)
Method: After intubation of the trachea the animals are pithed by introducing a blunt needle through the eye into the spinal bone marrow channel. The animals are ventilated with oxygen-rich ambient air using a respiratory pump (20 strokes/minute). A cannula is inserted in the left carotid artery and the arterial blood pressure is measured using a pressure gauge (Braun Melsungen Combitrans) connected to a recording device. For injection purposes a catheter is placed in the left jugular vein through which heparin is administered (200 IU/kg, i.v.). After the blood pressure has been stabilised, the animals are given 2 bolus injections of NPY (10 μg/kg, i.v.) at intervals of 15 minutes. The average increase in diastolic blood pressure is taken as the reference value (=100%). The test substances are injected in increasing doses (4 to 6 doses) at intervals of 15 minutes. One minute after administration of the test substance, NPY is administered.
The antagonistic effect of the test substances is determined by plotting the percentage inhibition of the NPY-induced blood pressure effects against the logarithm of the concentration of active substance.

[3] = tested on: NPY; assay: NPY-antagonism in vitro, isolated perfused rat kidney; settings: NPY 1 μM bolus
Method: The abdomen is opened along the centre of the body and the left kidney is removed after the insertion of catheters in the renal artery, renal vein and ureter. The isolated kidney is immediately perfused with a modified Krebs-Ringer solution having the following composition (4 ml/minute):
The perfusion pressure is measured continuously using a pressure gauge. After a 60 minute stabilisation period the perfusion rate is adjusted so as to obtain a perfusion pressure of approximately 100 mm Hg. After a further 30 minutes the experiment is started and NPY (1μM) is administered as a bolus (0.1 ml) at 15 minute intervals until the pressure increase observed reaches a constant value. The compounds to be tested are given in the form of a continuous infusion over a period of 5 minutes and then NPY is injected. After a 30 minute wash-out period the next highest concentration of test substance is investigated. 3 to 5 different concentrations of the particular compound are tested on each occasion. Concentration/activity curves can be obtained by plotting the percentage inhibition of the NPY activity against the logarithm of the concentration (mol/1) of the compound.

[4] = tested on: NPY induced food intake; assay: Food intake in satiated rats after NPY application to the PVN; type: in vivo, rat
Method: For these determinations food intake was measured in normal satiated rats after application of NPY to the paraventricular nucleus (PVN) in the presence or absence of the test compound. […] The rats were individually housed in stainless steel cages where water and food were available ad libitum.
Rats under Pentobarbital anaesthesia were stereotactically implanted with a stainless steel double guide cannula targeted bilaterally at the PVNs. Stereotactic coordinates were: -1.8mm caudal, 0.5mm lateral to bregma and 7.0 mm below the skull surface. Injection cannulae extended the guide cannulae by 1 mm. Animals were allowed to recover from surgery for at least 10 days before being used in the experiments. Rats were handled and mock-injected during the […] recovery period to habituate them to the injection procedure.
Animals treated with both test compounds and NPY were treated first with the test compound. Then, 15 min. after PVN infusion of the test compound or vehicle (control) 1 μg of NPY was administered by PVN infusion.
Food intake was measured by placing preweighed pellets into the cages at the time of NPY injection. Pellets were removed from the cage at 2 h post NPY injection. The food intake of animals treated with test compound was calculated as a percentage of the food intake of control animals, i.e., animals treated with vehicle.

| IC50 [1] [nM] | Molecule | also measured |
| --- | --- | --- |
| 1.5 | CN(C)C(=O)NCc1ccc(CNC(=O)[C@@H](CCCNC(=N)N)NC(=O)C(c2ccccc2)c2ccccc2)cc1 [I, (R)-N-[[4-(Dimethylaminocarbonylaminomethyl)phenyl]methyl]-N^2-(diphenylacetyl)-argininamide-bis-(trifluor-acetate)] | – |
| 4.25 | CCOC(=O)NCc1ccc(CNC(=O)[C@@H](CCCNC(=N)N)NC(=O)C(c2ccccc2)c2ccccc2)cc1 [Q, (R)-N^2-(Diphenylacetyl)-N-[[4-(ethoxycarbonylamino-methyl)phenyl]methyl]-argininamide-trifluoracetate] | ED50 [2]: 0.162 µmol/kg; pIC50 (NPY-antagonism in vitro) [3]: 7.77 |
| 3.45 | N=C(N)NCCC[C@@H](NC(=O)CC(c1ccccc1)c1ccccc1)C(=O)NCc1ccc(CNC(N)=O)cc1 [O, (R)-N-[[4-(Aminocarbonylaminomethyl)phenyl]methyl]-N^2-(3,3-diphenyl-1-oxopropyl)-argininamide] | – |
| 2.2 | COC(=O)COc1ccc(C(C(=O)N[C@H](CCCNC(=N)N)C(=O)NCc2ccc(CNC(N)=O)cc2)c2ccc(O)cc2)cc1 (stereo partly drawn) [L] | – |
| 3 | N=C(N)NCCC[C@@H](NC(=O)C(c1ccccc1)c1ccccc1)C(=O)OCc1ccc(CNC(N)=O)cc1 [M, (R)-N^2-(Diphenylacetyl)-arginine-[4-(aminocarbonylamino-methyl)phenyl]methylester-trifluoracetate] | – |
| 1.8 | N=C(N)NCCC[C@@H](NC(=O)Nc1ccc(Cl)c(Cl)c1)C(=O)NCc1ccc(CNC(N)=O)cc1 [K] | – |
| 3.4 | COc1ccc2cc(C(=O)N[C@H](CCCNC(=N)N)C(=O)NCc3ccc(CNC(N)=O)cc3)ccc2c1 [N, (R)-N-[[4-(Aminocarbonylaminomethyl)phenyl]methyl]-N^2-(6-methoxy-2-naphthoyl)-argininamide-acetate] | – |
| 4.5 | N=C(N)NCCC[C@@H](NC(=O)Cc1cc(Cl)c(N)c(Cl)c1)C(=O)NCc1ccc(CNC(N)=O)cc1 [R, (R)-N-[[4-(Aminocarbonylaminomethyl)phenyl]methyl]-N^2-[(4-amino-3,5-dichlorphenyl)acetyl]-argininamide-tri-fluoracetate] | – |

The remaining lines, values behind:

| Molecule | IC50 [1] [nM] | also measured |
| --- | --- | --- |
| NC(=O)Cc1ccc(CNC(=O)[C@@H](CCCNc2ncc[nH]2)NC(=O)C(c2ccccc2)c2ccccc2)cc1 [S, (R)-N-[[4-(Aminocarbonylmethyl)phenyl]methyl]-N^2-(diphenylacetyl)-N^5-(1H-imidazol-2-yl)-ornithinamide-hydroiodide] | 28.3 | – |
| Neuropeptide Y [NPY, reference compound] | – | two hour food intake induced by NPY ([4]; NPY 1 μg, versus 0.5 g with vehicle): 3.5 g |
| CN(CCCC(NC(=O)C(c1ccccc1)c1ccccc1)C(=O)NCc1ccc(O)cc1)C(=N)N (racemic) [Compound E, (R,S)-N^5-(Aminoiminomethyl)-N^2-(diphenylacetyl)-N-[(4-hydroxyphenyl)methyl]-N^5-methyl-ornithinamide-hydrochloride] | – | ED50 [2]: 0.0135 µmol/kg; pIC50 (NPY-antagonism in vitro) [3]: 8.41 |
| N=C(N)NCCC[C@@H](NC(=O)C(c1ccc(O)cc1)c1ccc(O)cc1)C(=O)NCc1ccc(CNC(N)=O)cc1 [A] | – | % Inhibition of food intake ([4]; 30 μg, PVN, 2 h, 1 μg NPY): 32%; Food intake following NPY application ([4]; 30 μg, PVN, 2 h, 1 μg NPY): 2.40 g/animal |
| CN(Cc1ccc(CNC(N)=O)cc1)C(=O)[C@@H](CCCNC(=N)N)NC(=O)C(c1ccccc1)c1ccccc1 [P, (R)-N-[[4-(Aminocarbonylaminomethyl)phenyl]methyl]-N^2-(diphenylacetyl)-N-methyl-argininamide-acetate] | 3.5 | – |
| CCOC(=O)NC(=O)NCc1ccc(CNC(=O)[C@@H](CCCNC(=N)N)NC(=O)C(c2ccccc2)c2ccccc2)cc1 [H, (R)-N^2-(Diphenylacetyl)-N-[[4-(ethoxycarbonylamino-carbonylaminomethyl)phenyl]methyl]-argininamide-trifluor-acetate] | 1.1 | – |
